Experimental findings from US12398154B2, “Azaquinazoline pan-KRas inhibitors” (Mirati Therapeutics, Inc., priority 2020, dated 2025) are described below.

One test deals with KRas G12D (Homo sapiens, UniProt P01116, G12D). Briefly: biochemical.
A further test concerns the target KRas G12V (Homo sapiens, UniProt P01116, G12V). The test is described as follows: biochemical.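 Also: KRas binding measured by TR-FRET displacement at room temperature, IC50 fitted from percent of control values.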
The target in a further test is KRas G12R (Homo sapiens, UniProt P01116, G12R). Briefly: biochemical.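 Also: TR-FRET displacement assay of compound binding to KRas, read after one hour at room temperature, potency from a four-parameter fit of percent-of-control values.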
Chain of KRas G12R (P01116 1-169 isoform P01116-2 G12R): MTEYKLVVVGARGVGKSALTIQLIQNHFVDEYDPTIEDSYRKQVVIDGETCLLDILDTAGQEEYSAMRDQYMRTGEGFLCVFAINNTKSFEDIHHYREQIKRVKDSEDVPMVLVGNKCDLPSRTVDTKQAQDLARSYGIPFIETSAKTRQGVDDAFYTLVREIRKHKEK
Another test deals with pERK in MKN1 cells. Briefly: Inhibition of KRas phosphorylation of ERK (Cisbio HTRF pERK assay). Particulars: Homo sapiens, MKN-1, 3 h, read-out: Inhibition (HTRF IC50) of KRas-mediated Phosphorylation of ERK, MKN1. In general terms: In TR-FRET formats the signal depends on donor and acceptor labels being close together.
Another test has as its system pERK in PSN1 cells. The test is described as above. Particulars: Homo sapiens, PSN1, 3 h, read-out: Inhibition (HTRF IC50) of KRas-mediated Phosphorylation of ERK, PSN1.
The subject of another test is pERK in ASPC1 cells. Described as above. Particulars: Homo sapiens, ASPC1, read-out: Inhibition (HTRF IC50) of KRas-mediated Phosphorylation of ERK, AsPC-1.
Another test relates to pERK in H727 cells. Described as above. Particulars: Homo sapiens, NCI-H727, read-out: Inhibition (HTRF IC50) of KRas-mediated Phosphorylation of ERK, H727.
In the next test the test system is pERK in H460 cells. Described as above. The note with it: Homo sapiens, NCI-H460, read-out: Inhibition (HTRF IC50) of KRas-mediated Phosphorylation of ERK, H460.
A further test has as its system pERK in HCT116 cells. Described as above. The note with it: Homo sapiens, HCT-116, read-out: Inhibition (HTRF IC50) of KRas-mediated Phosphorylation of ERK, HCT116.
Another test has as its system pERK in H358 cells. Described as above. Particulars: Homo sapiens, NCI-H358, read-out: Inhibition (HTRF IC50) of KRas-mediated Phosphorylation of ERK, H358.

Chain of KRas G12V (P01116 1-169 isoform P01116-2 G12V): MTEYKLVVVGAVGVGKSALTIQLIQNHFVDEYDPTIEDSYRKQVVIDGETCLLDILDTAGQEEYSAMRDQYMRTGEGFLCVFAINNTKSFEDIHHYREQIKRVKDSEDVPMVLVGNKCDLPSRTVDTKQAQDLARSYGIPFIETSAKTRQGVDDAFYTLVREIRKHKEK
Chain of KRas G12D (P01116 1-169 isoform P01116-2 G12D): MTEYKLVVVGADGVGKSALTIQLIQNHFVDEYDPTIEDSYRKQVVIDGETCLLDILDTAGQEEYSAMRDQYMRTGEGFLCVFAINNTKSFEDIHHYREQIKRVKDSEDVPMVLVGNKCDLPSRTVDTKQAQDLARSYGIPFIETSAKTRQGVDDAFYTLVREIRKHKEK

With `CCc1c(F)ccc2cc(O)cc(-c3ncc4c(N5CCCC(O)CC5)nc(OC[C@@]56CCCN5C[C@H](F)C6)nc4c3F)c12` (stereo in doubt) [Example 346, 1-(7-(8-ethyl-7-fluoro-3-hydroxynaphthalen-1-yl)-8-fluoro-2-(((2R,7aS)-2-fluorohexahydro-1H-pyrrolizin-7a-yl)methoxy)pyrido[4,3-d]pyrimidin-4-yl)azepan-4-ol], the half-maximal inhibitory concentration (IC50) – broadly, the concentration at which inhibition is half-maximal – against KRas G12D is at most 2 nM; at KRas G12V it was at most 2 nM; against KRas G12R it was at most 2 nM; in the test with pERK in MKN1 cells, 11 nM; with pERK in PSN1 cells, 7390 nM; in the test with pERK in ASPC1 cells, 99 nM. Further, the 50% inhibitory concentration (IC50) was found to be 113 nM with pERK in H727 cells, 166 nM in the test with pERK in H460 cells, 133 nM in the test on pERK in HCT116 cells and 57 nM in the test with pERK in H358 cells.

As for `CCc1c(F)ccc2cc(O)cc(-c3ncc4c(N5CCOCC(O)C5)nc(OC[C@@]56CCCN5C[C@H](F)C6)nc4c3F)c12` (stereo partly drawn) [Example 345, 4-(7-(8-ethyl-7-fluoro-3-hydroxynaphthalen-1-yl)-8-fluoro-2-(((2R,7aS)-2-fluorotetrahydro-1H-pyrrolizin-7a(5H)-yl)methoxy)pyrido[4,3-d]pyrimidin-4-yl)-1,4-oxazepan-6-ol], the IC50 with pERK in MKN1 cells was determined as 13 nM; in the test with pERK in PSN1 cells it was 8780 nM; with pERK in ASPC1 cells it was 83 nM; in the test with pERK in H727 cells, 138 nM; in the test with pERK in H460 cells, 82 nM; with pERK in HCT116 cells, 296 nM. For the same compound, the IC50 in the test with pERK in H358 cells amounted to 20 nM.

For the compound `CCc1c(F)ccc2cc(O)cc(-c3ncc4c(N5C[C@@H]6C[C@H](C5)[C@H](O)C6)nc(OCC5(CN(C)C)CC5)nc4c3F)c12` [Example 360, (1R,5R,6R)-3-(2-((1-((dimethylamino)methyl)cyclopropyl)methoxy)-7-(8-ethyl-7-fluoro-3-hydroxynaphthalen-1-yl)-8-fluoropyrido[4,3-d]pyrimidin-4-yl)-3-azabicyclo[3,2,1]octan-6-ol], the IC50 against KRas G12D is 5 nM; against KRas G12V, at most 2 nM; against KRas G12R it was at most 2 nM; with pERK in MKN1 cells, 2 nM; in the test on pERK in PSN1 cells it was 9190 nM; in the test with pERK in ASPC1 cells, 49 nM. For the same compound, the IC50 is 62 nM in the test with pERK in H727 cells, 54 nM in the test on pERK in H460 cells, 140 nM with pERK in HCT116 cells and 19 nM in the test with pERK in H358 cells.

Take `CCc1c(F)ccc2cc(O)cc(-c3ncc4c(N5CCC[C@@](C)(O)C5)nc(OCC(C)(C)CN(C)C)nc4c3F)c12` [Example 366, (R)-1-(2-(3-(dimethylamino)-2,2-dimethylpropoxy)-7-(8-ethyl-7-fluoro-3-hydroxynaphthalen-1-yl)-8-fluoropyrido[4,3-d]pyrimidin-4-yl)-3-methylpiperidin-3-ol]: the IC50 at KRas G12D was determined as 3 nM; at KRas G12V, 3 nM; against KRas G12R it was 9 nM; with pERK in MKN1 cells it was 11 nM; in the test on pERK in PSN1 cells, 5530 nM; with pERK in ASPC1 cells, 60 nM. Also, the 50% inhibitory concentration (IC50) was determined as 185 nM in the test with pERK in H727 cells, 108 nM with pERK in H460 cells, 321 nM with pERK in HCT116 cells and 61 nM with pERK in H358 cells.

Consider `C#Cc1c(F)ccc2cc(O)cc(-c3ncc4c(N5CCOCC(CO)C5)nc(OC[C@@]56CCCN5C[C@H](F)C6)nc4c3F)c12` (stereo partly drawn) [Example 391, 5-ethynyl-6-fluoro-4-(8-fluoro-2-(((2R,7aS)-2-fluorohexahydro-1H-pyrrolizin-7a-yl)methoxy)-4-(6-(hydroxymethyl)-1,4-oxazepan-4-yl)pyrido[4,3-d]pyrimidin-7-yl)naphthalen-2-ol], for which the IC50 at KRas G12D was at most 2 nM; at KRas G12V, at most 2 nM; on KRas G12R it was at most 2 nM; in the test on pERK in MKN1 cells, 12 nM; in the test with pERK in PSN1 cells it was 3990 nM; in the test on pERK in ASPC1 cells, 61 nM. Moreover, the IC50 with pERK in H727 cells was determined as 74 nM; in the test on pERK in H460 cells it was 143 nM; in the test on pERK in HCT116 cells it was 563 nM; with pERK in H358 cells it was 22 nM.

Consider `O=S1(=O)NCC2(CCCN(c3nc(OC[C@@]45CCCN4C[C@H](F)C5)nc4c(F)c(-c5cc(O)cc6ccc(F)c(Br)c56)ncc34)C2)N1` (stereo partly drawn) [Example 411, 7-(7-(8-bromo-7-fluoro-3-hydroxynaphthalen-1-yl)-8-fluoro-2-(((2R,7aS)-2-fluorohexahydro-1H-pyrrolizin-7a-yl)methoxy)pyrido[4,3-d]pyrimidin-4-yl)-2-thia-1,3,7-triazaspiro[4.5]decane 2,2-dioxide], for which the IC50 at KRas G12D was at most 2 nM; on KRas G12V, at most 2 nM; against KRas G12R, at most 2 nM; with pERK in MKN1 cells, 40 nM; in the test with pERK in PSN1 cells it was 146 nM; in the test on pERK in ASPC1 cells it was 63 nM. In addition, the IC50 came to 83 nM in the test with pERK in H727 cells, 48 nM in the test on pERK in H460 cells, 92 nM in the test with pERK in HCT116 cells and 9 nM in the test on pERK in H358 cells.

Turning to `CC1(O)COCCN(c2nc(OC[C@@]34CCCN3C[C@H](F)C4)nc3c(F)c(-c4cc(O)cc5ccc(F)c(Cl)c45)ncc23)C1` (stereo partly drawn) [Example 419, 4-(7-(8-chloro-7-fluoro-3-hydroxynaphthalen-1-yl)-8-fluoro-2-(((2R,7aS)-2-fluorohexahydro-1H-pyrrolizin-7a-yl)methoxy)pyrido[4,3-d]pyrimidin-4-yl)-6-methyl-1,4-oxazepan-6-ol], the IC50 came to 3 nM on KRas G12D; 3 nM against KRas G12V; 8 nM against KRas G12R; 14 nM in the test on pERK in MKN1 cells; 3480 nM in the test on pERK in PSN1 cells; 71 nM in the test on pERK in ASPC1 cells. Further, the 50% inhibitory concentration (IC50) in the test on pERK in H727 cells is 154 nM; in the test on pERK in H460 cells it was 182 nM; with pERK in HCT116 cells, 319 nM; in the test with pERK in H358 cells, 58 nM.

For `CCc1cccc2cc(O)c(F)c(-c3ncc4c(N5CCC[C@@](C)(O)C5)nc(OC[C@@]56CCCN5C[C@H](F)C6)nc4c3F)c12` [Example 472, (3R)-1-(7-(8-ethyl-2-fluoro-3-hydroxynaphthalen-1-yl)-8-fluoro-2-(((2R,7aS)-2-fluorohexahydro-1H-pyrrolizin-7a-yl)methoxy)pyrido[4,3-d]pyrimidin-4-yl)-3-methylpiperidin-3-ol], the IC50 against KRas G12D worked out at 6 nM; on KRas G12V it was 16 nM; at KRas G12R, 18 nM; in the test with pERK in MKN1 cells, 80 nM; in the test on pERK in PSN1 cells, 9300 nM; with pERK in ASPC1 cells, 89 nM. The concentration for half-maximal inhibition (IC50) in the test on pERK in H727 cells is 406 nM; in the test with pERK in H460 cells it was 414 nM; in the test with pERK in HCT116 cells it was 1070 nM; in the test with pERK in H358 cells it was 231 nM.

As for `CCc1c(F)ccc2cc(O)cc(-c3ncc4c(N5CCCn6nc(C(=O)N(C)C)c(F)c6C5)nc(OC[C@@]56CCCN5C[C@H](F)C6)nc4c3F)c12` [Example 505, 5-(7-(8-ethyl-7-fluoro-3-hydroxynaphthalen-1-yl)-8-fluoro-2-(((2R,7aS)-2-fluorohexahydro-1H-pyrrolizin-7a-yl)methoxy)pyrido[4,3-d]pyrimidin-4-yl)-3-fluoro-N,N-dimethyl-5,6,7,8-tetrahydro-4H-pyrazolo[1,5-a][1,4]diazepine-2-carboxamide], the half-inhibitory concentration (IC50) was at most 2 nM on KRas G12D; at most 2 nM on KRas G12V; at most 2 nM on KRas G12R; 31 nM with pERK in MKN1 cells; at least 10000 nM in the test on pERK in PSN1 cells; 14 nM in the test with pERK in ASPC1 cells. Also, the values for the IC50 in the test on pERK in H727 cells, with pERK in H460 cells and with pERK in H358 cells were 50 nM, 327 nM and 16 nM, respectively.
